Patent publication US10722514B2 (FLX Bio, Inc., priority 2017, dated 2020)
Counter-ions that a name gives are not always drawn.

Target: T1, recombinant full-length USP7 (Homo sapiens, UniProt Q93009)
T1 construct: A 25 μl reaction volume containing recombinant full-length USP7 (62 pM)
Test: USP7-mediated ubiquitin-rhodamine cleavage assay
Format: biochemical
Settings: recombinant full-length USP7 62 pM; ubiquitin-rhodamine 100 nM; 30-minute incubation with compound, 1 hour reaction at room temperature; read-out: Potency: USP7 IC50
Summary of the method: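 Compounds are first incubated with 62 pM enzyme for 30 min at room temperature in pH 7.3 HEPES buffer containing TCEP and BSA. Cleavage of 100 nM ubiquitin-rhodamine proceeds for 1 h before an acid quench, and IC50 is derived from fluorescence.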

T1 sequence (Q93009 whole entry): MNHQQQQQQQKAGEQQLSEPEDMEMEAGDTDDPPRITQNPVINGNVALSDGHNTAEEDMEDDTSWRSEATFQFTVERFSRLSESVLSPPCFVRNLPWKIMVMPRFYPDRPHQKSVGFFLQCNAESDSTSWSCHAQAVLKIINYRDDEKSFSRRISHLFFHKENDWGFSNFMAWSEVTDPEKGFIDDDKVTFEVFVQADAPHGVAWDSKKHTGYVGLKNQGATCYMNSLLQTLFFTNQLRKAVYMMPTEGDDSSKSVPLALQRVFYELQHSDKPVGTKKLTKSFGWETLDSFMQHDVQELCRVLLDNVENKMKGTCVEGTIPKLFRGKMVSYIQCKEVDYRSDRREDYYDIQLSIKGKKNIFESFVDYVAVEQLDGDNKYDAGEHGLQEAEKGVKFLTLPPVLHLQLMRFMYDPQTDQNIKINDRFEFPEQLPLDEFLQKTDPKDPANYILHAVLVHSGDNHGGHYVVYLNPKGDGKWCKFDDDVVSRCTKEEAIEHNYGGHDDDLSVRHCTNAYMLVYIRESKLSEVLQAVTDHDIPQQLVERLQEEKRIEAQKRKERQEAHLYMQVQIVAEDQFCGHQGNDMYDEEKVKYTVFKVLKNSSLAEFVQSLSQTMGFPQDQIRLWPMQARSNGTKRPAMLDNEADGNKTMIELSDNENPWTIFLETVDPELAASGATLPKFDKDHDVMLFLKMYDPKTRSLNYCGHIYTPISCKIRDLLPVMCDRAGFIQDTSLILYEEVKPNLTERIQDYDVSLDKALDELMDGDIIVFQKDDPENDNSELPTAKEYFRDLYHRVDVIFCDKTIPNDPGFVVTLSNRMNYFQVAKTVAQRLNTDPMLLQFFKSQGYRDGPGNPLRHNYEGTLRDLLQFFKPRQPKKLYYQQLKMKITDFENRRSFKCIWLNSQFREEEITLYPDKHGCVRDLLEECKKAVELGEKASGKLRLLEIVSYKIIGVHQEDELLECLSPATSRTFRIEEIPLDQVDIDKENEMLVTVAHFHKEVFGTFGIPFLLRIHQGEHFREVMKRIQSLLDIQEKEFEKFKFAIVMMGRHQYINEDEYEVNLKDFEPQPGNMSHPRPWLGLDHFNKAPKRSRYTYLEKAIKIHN

Row | SMILES | IC50 [nM]
1 | CCC(O)c1cc2nccc(-c3cc(Cl)cc(C)c3O[C@@H]3CCNC3)c2s1 (stereo partly drawn) [Example 51, 1-(7-(5-Chloro-3-methyl-2-(((R)-pyrrolidin-3-yl)oxy)phenyl)thieno[3,2-b]pyridin-2-yl)propan-1-ol] | 1000 to 10000
2 | CN[C@H]1CC[C@H](Oc2c(C)cc(Cl)cc2-c2ccnc3cc(CO)sc23)CC1 [Example 179, (7-(5-Chloro-3-methyl-2-(((1r,4r)-4-(methylamino)cyclohexyl)oxy)phenyl)thieno[3,2-b]pyridin-2-yl)methanol] | 10000 to 30000
3 | Cc1cc(Cl)cc(-c2ccnc3cc(CN4C(=O)CCC4=O)sc23)c1O[C@@H]1CN[C@@H](CF)C1 [Example 101, 1-((7-(5-Chloro-2-(((3S,5R)-5-(fluoromethyl)pyrrolidin-3-yl)oxy)-3-methylphenyl)thieno[3,2-b]pyridin-2-yl)methyl)pyrrolidine-2,5-dione] | < 1000
4 | Cc1cc(Cl)cc(-c2ccnc3cc(Cn4c(=O)ccn(C)c4=O)sc23)c1OC1CNCC(C)(C)C1 (stereo not drawn) [Example 6, 3-((7-(5-Chloro-2-((5,5-dimethylpiperidin-3-yl)oxy)-3-methylphenyl)thieno[3,2-b]pyridin-2-yl)methyl)-1-methylpyrimidine-2,4(1H,3H)-dione] | < 1000
5 | Cc1cc(Cl)cc(-c2ccnc3cc(CN4C(=O)CCC4=O)sc23)c1OC1CCN(C)CC1 [Example 216, 1-((7-(5-Chloro-3-methyl-2-((I-methylpiperidin-4-yl)oxy)phenyl)thieno[3,2-b]pyridin-2-yl)methyl)pyrrolidine-2,5-dione] | < 1000
6 | Cc1cc(Cl)cc(-c2ccnc3cc(CN4C(=O)C5CC5C4=O)sc23)c1OC1CN2CCC1CC2 (stereo not drawn) [Example 319, 3-[[7-(5-chloro-3-methyl-2-quinuclidin-3-yloxy-phenyl)thieno[3,2-b]pyridin-2-yl]methyl]-3-azabicyclo[3.1.0]hexane-2,4-dione; 2,2,2-trifluoroacetic acid] | < 1000
7 | CCC(O)c1cc2nccc(-c3cc(Cl)cc(C)c3O[C@H]3CCNC3)c2s1 (stereo partly drawn) [Example 50, 1-(7-(5-Chloro-3-methyl-2-(((S)-pyrrolidin-3-yl)oxy)phenyl)thieno[3,2-b]pyridin-2-yl)propan-1-ol] | 1000 to 10000
8 | Cc1cc(Cl)cc(-c2ccnc3cc(CN4C(=O)CCC4=O)sc23)c1OCC1(F)CNC1 [Example 15, 1-((7-(5-Chloro-2-((3-fluoroazetidin-3-yl)methoxy)-3-methylphenyl)thieno[3,2-b]pyridin-2-yl)methyl)pyrrolidine-2,5-dione] | < 1000
9 | Cc1cc(Cl)cc(-c2ccnc3cc(CN4C(=O)CCC4=O)sc23)c1O[C@H]1CC[C@H](N2CCC2)C1 [Example 157, 1-((7-(2-(((1S,3S)-3-(Azetidin-1-yl)cyclopentyl)oxy)-5-chloro-3-methylphenyl)thieno[3,2-b]pyridin-2-yl)methyl)pyrrolidine-2,5-dione] | < 1000

Now from value to compound:

Row | IC50 [nM] | SMILES
10 | 1000 to 10000 | CC[C@@H](c1cc2nccc(-c3cc(Cl)cc(C)c3OC3CCNCC3)c2s1)N1C(=O)CCC1=O [Example 256, (S)-1-(1-(7-(5-Chloro-3-methyl-2-(piperidin-4-yloxy)phenyl)thieno[3,2-b]pyridin-2-yl)propyl)pyrrolidine-2,5-dione]
11 | < 1000 | Cc1cc(Cl)cc(-c2ncnc3cc(CN4C(=O)C5C(C4=O)C5(C)C)sc23)c1O[C@@H]1CNCC[C@@H]1C (stereo partly drawn) [Example 350, 3-[[4-[5-chloro-3-methyl-2-[[(3S,4S)-4-methyl-3-piperidyl]oxy]phenyl]thieno[3,2-d]pyrimidin-6-yl]methyl]-6,6-dimethyl-3-azabicyclo[3.1.0]hexane-2,4-dione]
12 | < 1000 | Cc1cc(Cl)cc(-c2ncnc3cc(CN4C(=O)CCC4=O)sc23)c1O[C@@H]1CCNC[C@H]1F [Example 306, 1-[[4-[5-chloro-2-[[(3R,4R)-3-fluoro-4-piperidyl]oxy]-3-methyl-phenyl]thieno[3,2-d]pyrimidin-6-yl]methyl]pyrrolidine-2,5-dione dihydrochloride]
13 | 1000 to 10000 | CCC(O)c1cc2nccc(-c3cc(Cl)cc(C)c3OC3CCCCNC3)c2s1 (stereo not drawn) [Example 265, 1-(7-(2-(Azepan-3-yloxy)-5-chloro-3-methylphenyl)thieno[3,2-b]pyridin-2-yl)propan-1-ol]
14 | < 1000 | Cc1cc(Cl)cc(-c2ccnc3cc([C@H](C)N4C(=O)C5CC5C4=O)sc23)c1O[C@H]1CCCNC1 (stereo partly drawn) [Example 288, 3-[(1S)-1-[7-[5-chloro-3-methyl-2-[[(3S)-3-piperidyl]oxy]phenyl]thieno[3,2-b]pyridin-2-yl]ethyl]-3-azabicyclo[3.1.0]hexane-2,4-dione; 2,2,2-trifluoroacetic acid]

Same assay, conditions: recombinant full-length USP7 62 pM; ubiquitin-rhodamine 100 nM; 30-minute incubation, 1 hour reaction at room temperature; read-out: Potency (USP7 IC50)

Row | SMILES | IC50 [nM]
15 | COC[C@@H]1CCC[N+]1(C)C1CC(Oc2c(C)cc(Cl)cc2-c2ccnc3cc(Cn4c(=O)ccn(CC(F)(F)F)c4=O)sc23)C1 (stereo partly drawn) [Example 688, 3-[[7-[5-chloro-2-[3-[(2S)-2-(methoxymethyl)-1-methyl-pyrrolidin-1-ium-1-yl]cyclobutoxy]-3-methyl-phenyl]thieno[3,2-b]pyridin-2-yl]methyl]-1-(2,2,2-trifluoroethyl)pyrimidine-2,4-dione; 2,2,2-trifluoroacetate; 2,2,2-trifluoroacetic acid] | < 1000

Same assay, conditions: recombinant full-length USP7 62 pM; ubiquitin-rhodamine 100 nM; 30-minute pre-incubation, 1 hour reaction at room temperature; read-out: Potency (USP7 IC50)

Row | IC50 [nM] | SMILES
16 | < 1000 | Cc1cc(Cl)cc(-c2ccnc3cc(Cn4c(=O)ccn(CC(F)(F)F)c4=O)sc23)c1O[C@H]1CNC[C@@H]1C [Example 567, 3-[[7-[5-chloro-3-methyl-2-[(3R,4S)-4-methylpyrrolidin-3-yl]oxy-phenyl]thieno[3,2-b]pyridin-2-yl]methyl]-1-(2,2,2-trifluoroethyl)pyrimidine-2,4-dione]
17 | < 1000 | Cc1cc(Cl)cc(-c2ccnc3cc(Cn4c(=O)ccn(C(C)C)c4=O)sc23)c1O[C@H]1CCC2NCCO[C@H]21 (stereo partly drawn) [Example 511, 4-[[7-[2-[[(7S,7aR)-2,3,4,4a,5,6,7,7a-octahydrocyclopenta[b][1,4]oxazin-7-yl]oxy]-5-chloro-3-methyl-phenyl]thieno[3,2-b]pyridin-2-yl]methyl]-1-isopropyl-pyrimidine-2,4-dione]
18 | < 1000 | Cc1cc(Cl)cc(-c2ccnc3cc(Cn4c(=O)ccn(C)c4=O)sc23)c1O[C@H]1CNC[C@H](C)C1 [Example 537, 3-[[7-[5-chloro-3-methyl-2-[[(3R,5R)-5-methyl-3-piperidyl]oxy]phenyl]thieno[3,2-b]pyridin-2-yl]methyl]-1-methyl-pyrimidine-2,4-dione]
19 | < 1000 | Cc1cc(Cl)cc(-c2ccnc3cc(Cn4c(=O)ccn(CC(F)(F)F)c4=O)sc23)c1O[C@@H]1C=C[C@@H](N)C1 [Example 630, 3-[[7-[2-[(1S,4S)-4-aminocyclopent-2-en-1-yl]oxy-5-chloro-3-methyl-phenyl]thieno[3,2-b]pyridin-2-yl]methyl]-1-(2,2,2-trifluoroethyl)pyrimidine-2,4-dione]
20 | < 1000 | Cc1cc(Cl)cc(-c2ccnc3cc(CN4C(=O)C[C@H](O)C4=O)sc23)c1OC1CCNCC1 [Example 417, (3S)-1-[[7-[5-chloro-3-methyl-2-(4-piperidyloxy)phenyl]thieno[3,2-b]pyridin-2-yl]methyl]-3-hydroxy-pyrrolidine-2,5-dione dihydrochloride]
21 | < 1000 | CC[C@H]1C[C@@H](Oc2c(C)cc(Cl)cc2-c2ccnc3cc(Cn4c(=O)ccn(C)c4=O)sc23)CCN1 [Example 610, 3-[[7-[5-chloro-2-[[(2S,4S)-2-ethyl-4-piperidyl]oxy]-3-methyl-phenyl]thieno[3,2-b]pyridin-2-yl]methyl]-1-methylpyrimidine-2,4-dione]
